Source: PMC7618597, “Dual Nurr1/RXR agonism of valerenic acid and synthetic mimetics enables dimer-selective Nurr1 modulation” (ACS medicinal chemistry letters, 2025)

How the values were obtained:
RXRα = molecular target: T1, RXRα (Homo sapiens, UniProt P19793); assay: Gal4-hybrid reporter gene assay, RXRα; type: cell-based; settings: Gal4-hybrid reporter gene assay; for EC50: mean±S.E.M., n≥3
T1 construct: pFA-CMV-hRXRα-LBD; expressed in transfected cells; host or cells: HEK293T
T1 sequence (P19793 227-458 limits assumed): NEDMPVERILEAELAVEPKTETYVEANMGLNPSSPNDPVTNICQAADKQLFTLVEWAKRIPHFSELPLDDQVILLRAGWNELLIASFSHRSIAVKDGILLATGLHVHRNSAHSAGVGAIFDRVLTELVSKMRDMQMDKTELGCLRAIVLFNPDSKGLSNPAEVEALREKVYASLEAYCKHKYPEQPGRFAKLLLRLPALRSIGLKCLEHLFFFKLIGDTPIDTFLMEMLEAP
Description: modified Eagle’s medium (DMEM), high glucose supplemented with 10% fetal calf serum (FCS), sodium pyruvate (1 mM), penicillin (100 U/mL), and streptomycin (100 μg/mL) at 37 °C and 5% CO2 and seeded in 96-well plates (3×10^4 cells/well). After 24 h, the medium was changed to Opti-MEM without supplements, and the cells were transiently transfected using Lipofectamine LTX reagent (Invitrogen) according to the manufacturer’s protocol. Five hours after transfection, the cells were incubated with the test compounds in Opti-MEM supplemented with penicillin (100 U/mL), streptomycin (100 μg/mL), and 0.1% DMSO for 15 h before luciferase activity was measured using the Dual -Glo Luciferase Assay System (Promega) according to the manufacturer’s protocol on a Tecan Spark l uminometer (Tecan Deutschland GmbH, Germany). Firefly luminescence was divided by Renilla luminescence and multiplied by 1000, resulting in relative light units (RLU) to normalize for transfection efficiency and cell growth. Fold activation was obtained by dividing the mean RLU of a sample by the mean RLU of the untreated control. All samples were tested in at least three biologically independent experiments in duplicates. For dose –response curve fitting and calculation of EC50 values, the equation “[Agonist] vs. response – Variable slope (four parameters)” was used in GraphPad Prism (version 5.04, GraphPad Software, La Jolla, CA, USA). […] (10 μM, NR4A) and bexarotene (1 µM, NR2B) served as the positive control. […]
150 μM in the same buffer containing 2-4% DMSO) in 21–26 injections (1 × 1 μL and 20 × 4 to 25 × 4 μL) with an injection interval of 120 s. As control experiments, the test compounds were titrated to the buffer, and the buffer was titrated to the protein under otherwise identical conditions. The heat rates of the compound-Nurr1 LBD titrations were analyzed using NanoAnalyze software (TA Instruments, New Castle, DE) with an independent binding model.

RXRα LBD = molecular target: T2, RXRα LBD (Homo sapiens, UniProt P19793); assay: Isothermal titration calorimetry, recombinant RXRα LBD; type: binding; settings: ITC
T2 construct: made in house
T2 sequence (P19793 227-458 limits assumed): T1 sequence (P19793 227-458 limits assumed)
Description: Isothermal titration calorimetry. ITC experiments for ligand binding to Nurr1 and RXR were conducted on an Affinity ITC instrument (TA Instruments, New Castle, DE) at 25 °C with a stirring rate of 75 rpm using recombinantly expressed ligand binding domain proteins as described previously5,6. The respective LBD protein (12–25 μM) in buffer (20 mM Tris pH 7.5, 100 mM NaCl, 5% glycerol) containing 2-4% DMSO was titrated with the test compounds (100-150 μM in the same buffer containing 2-4% DMSO) in 21–26 injections (1 × 1 μL and 20 × 4 to 25 × 4 μL) with an injection interval of 120 s. As control experiments, the test compounds were titrated to the buffer, and the buffer was titrated to the protein under otherwise identical conditions. The heat rates of the compound-Nurr1 LBD titrations were analyzed using NanoAnalyze software (TA Instruments, New Castle, DE) with an independent binding model.

[1] = molecular target: T3, full-length Nurr1 homodimer (NurRE) (Homo sapiens, UniProt P43354); assay: Full-length Nurr1 reporter gene assay, homodimer response element NurRE; type: cell-based
T3 construct: full-length human nuclear receptor Nurr1 encoded by pcDNA3.1 -hNurr1-NE; host or cells: HEK293T
T3 sequence (P43354 whole entry): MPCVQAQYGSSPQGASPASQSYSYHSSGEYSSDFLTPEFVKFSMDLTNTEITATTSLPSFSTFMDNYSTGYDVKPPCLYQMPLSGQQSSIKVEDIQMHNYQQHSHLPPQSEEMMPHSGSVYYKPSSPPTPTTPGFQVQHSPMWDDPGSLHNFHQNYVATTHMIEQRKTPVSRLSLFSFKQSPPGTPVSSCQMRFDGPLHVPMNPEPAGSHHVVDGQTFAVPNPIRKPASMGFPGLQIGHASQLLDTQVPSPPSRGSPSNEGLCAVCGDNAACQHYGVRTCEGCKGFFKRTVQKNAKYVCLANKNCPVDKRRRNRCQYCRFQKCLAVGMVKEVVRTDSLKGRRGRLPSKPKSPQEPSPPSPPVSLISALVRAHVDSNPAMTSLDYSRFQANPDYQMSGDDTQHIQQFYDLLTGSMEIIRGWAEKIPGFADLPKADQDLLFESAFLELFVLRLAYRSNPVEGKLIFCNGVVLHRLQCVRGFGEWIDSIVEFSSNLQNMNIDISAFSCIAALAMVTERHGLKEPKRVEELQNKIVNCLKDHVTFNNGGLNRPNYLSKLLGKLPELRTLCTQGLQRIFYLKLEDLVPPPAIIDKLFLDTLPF
Description: Based on these findings, we next determined the effects of 2 and 3 on Nurr1 activity in a cellular setting using reporter constructs for the NGFI-B response element (NBRE), the Nur response element (NurRE), and the direct repeat 5 (DR5)[36]. All three response elements are robustly activated by common Nurr1 agonists[4],[31]. […]
Reporter gene assays for full-length human Nurr1 and RXR. Modulation of full-length human Nurr1 (NR4A2) was studied using pRL-SV40 (1.5 ng/well reporter plasmid) and the previously described4 reporter plasmids pFR-Luc-NBRE (100 ng/well reporter plasmid), pFR-Luc-NurRE (50 ng/well reporter plasmid) or pFR-Luc-DR5 (50 ng/well reporter plasmid). […] Five hours after transfection, the cells wer e incubated with the test compounds in Opti-MEM supplemented with penicillin (100 U/mL), streptomycin (100 μg/mL), and 0.1% DMSO for 15 h before luciferase activity was measured using the Dual-Glo Luciferase Assay System (Promega) according to the manufacturer’s protocol on a Tecan Spark luminometer (Tecan Deutschland GmbH, Germany). Firefly luminescence was divided by Renilla luminescence and multiplied by 1000, resulting in relative light units (RLU) to normalize for transfection efficiency and cell growth. […]

Chemical stability = type: physicochemical; settings: compared to 2

Row | Structure (SMILES) | max. act. (RXR) α (RXRα) | EC50 (RXRα) | Kd (RXRα LBD) | activation on NurRE [1] | chemical stability (Chemical stability)
1 | Cc1c2c(n(-c3ccc(CC(=O)O)cc3)c1C)CCC(F)(F)C2 [compound 2] | 69±1 fold | 0.97 µM | 1.1 µM | no activation was detectable | –
2 | Cc1c(C)n(-c2ccc(CC(=O)O)cc2)c2ccc(F)cc12 [compound 3] | 83±9 fold | 0.4 µM | 0.2 µM | no activation was detectable | improved chemical stability
